In article PMC11477482 (Molecules, 2024):
“Also recorded” adds a separate entry of the source.

What was measured:
[1] = Stability in metal solutions, pH 5 (UV-vis absorbance); type: physicochemical
Method: Five independent metal solutions (100 µM) were prepared in a buffer at pH 5, in triplicate. To the compound solutions, a volume of metal solutions was added to a final proportion of 1:1. The stability in the presence of different metals was analyzed at specific time points. The solutions were stored at room temperature in the dark. Aliquots of 3.00 mL were transferred to quartz cuvettes at specific time points to measure their absorbance using UV–vis spectrophotometry. Solutions of each metal were used as blanks.

[2] = system: RAW264.7 cells (mitochondrial O2− production); experiment: Mitochondrial antioxidant activity (MitoSOX, rotenone-induced superoxide); type: cell-based, mouse; settings: 500 μM; for mitochondrial antioxidant activity: rotenone 20 μM
Method: (§1) The human keratinocytes (HaCaT, CLS 300493, Eppelheim, Germany) cell line was cultured with Dulbecco’s Modified Eagle’s Medium (DMEM) (Sigma-Aldrich, St. Louis, MO, USA), supplemented with 10% (v/v) of heat-inactivated fetal bovine serum (FBS), 1% (v/v) antibiotic solution (from a 10,000 U/mL penicillin and 10,000 μg/mL streptomycin stock) (Gibco, Carlsbad, CA, USA), 3.7 g/L sodium bicarbonate, and 1 mM sodium pyruvate (Sigma-Aldrich, St. Louis, MO, USA). The cell culture of keratinocytes was detached with EDTA solution 1X (Sigma-Aldrich, St. Louis, MO, USA) when the cells reached 70–80% confluence in cell culture flasks. The mouse macrophage cell line (RAW 264.7, ATCC TIB-71, Manassas, VA, USA) was cultured in DMEM supplemented with 10% (v/v) non-inactivated FBS, 1% (v/v) antibiotic solution, 1.5 g/L sodium bicarbonate, and 1 mM sodium pyruvate. Macrophages were mechanically detached with a cell scraper and subcultured in (1:10) proportion of cellular suspension to a final volume of DMEM. The human monocytic cell line THP-1 (ATCC® TIB-202™, American Type Culture Collection, Manassas, VA, USA) was cultivated in RPMI 1640 supplemented with 10% inactivated FBS, 25 mM (D)-glucose, 10 mM HEPES, 1 mM sodium pyruvate, 100 U/mL penicillin, and 100 μg/mL streptomycin, and maintained at a cell density of 0.4 × 10^6 cells/mL. Cells were subcultured every 2 or 3 days and maintained in culture for 2–3 months, according to ATCC® instructions.
Mitochondrial superoxide (O2^−) generation was determined using the MitoSOX Red kit, according to the manufacturer’s instructions. Briefly, 5.0 × 10^5 cells/mL were plated in a 12-well plate and incubated for 24 h at 37 °C. The cells were then exposed to the AA, AAG and AAGS solution (500 µM), and after 1 h, rotenone (20 μM) was added, followed by incubation for an additional 5 h. The cells were then carefully detached, transferred to microtubes, and centrifuged at 500× g for 3 min. The cell pellet was washed with HBSS solution (2 × 1 mL), resuspended in PBS solution, and 300 µL was collected in two microtubes for unstained (150 µL) and stained (150 µL) conditions. The stained cells were incubated with 100 μL of freshly prepared MitoSOX solution 2.5 µM at 37 °C for 15 min in the dark. The stained cells were washed with HBSS solution (2 × 1 mL), and the cell pellet was resuspended in 100 μL of PBS and analyzed by flow cytometry using a BD Accuri™ C6 cytometer (San Jose, CA, USA).
CD86 and CD54 levels were analyzed by flow cytometry using the acquisition channels FL1 and FL4. Mitochondrial O2^− production was measured by flow cytometry using the acquisition channel FL2. The relative fluorescence intensity (RFI) of CD86 and CD54 (THP-1 maturation assay) and MitoSOX (mitochondrial antioxidant activity) in the control and chemical-treated cells, based on the geometric mean fluorescence intensity (MFI), was calculated according to the following equation: RFI=MFI of chemical treated cells−MFI of chemical treated unstained cells/MFI of control treated cells−MFI of control unstained cells ×100

[3] = system: NO production in LPS-stimulated RAW 264.7 macrophages; experiment: NO production in LPS-stimulated macrophages (Griess assay); type: cell-based, mouse; settings: LPS 100 ng/mL, 24 h
Method: as §1, with “instructions. Nitric oxide (NO) production was measured by quantifying the accumulation of nitrites in culture supernatants using the Griess assay. […] After a 30 min incubation period at room temperature, protected from light, the absorbance was read at 550 nm using a microplate spectrophotometer. The concentration of nitrites present in the supernatants was determined by interpolation of the absorbance of each sample in a sodium nitrite standard curve. The results of four independent experiments, in duplicate, were expressed as the percentage of NO production by cells versus the concentration of the chemicals compared with LPS (100%).” for “instructions.”

Row | Compound | loss of absorbance ([1]; pH 5, Ca(II), Cu(II), and Fe(III), after one day) [%] | pro-oxidant profile [2] | mitochondrial antioxidant activity [2] | effect on NO production [3] | reduction of NO production ([3]; relative to LPS = 100%) [%] | loss of absorbance ([1]; pH 5, Cu(II), Fe(II), and Fe(III)) [%] | loss of absorbance ([1]; pH 5, Fe(III) and Cu(II), at the end of 1 d) [%]
1 | O=C1OC(C(COS(=O)(=O)O)OS(=O)(=O)O)C(OS(=O)(=O)O)=C1OC1OC(COS(=O)(=O)O)C(OS(=O)(=O)O)C(OS(=O)(=O)O)C1OS(=O)(=O)O [AAGS, 2-O-α-D-glucopyranosyl-L-ascorbic acid persulfate] | > 50 | non-prooxidant; also recorded: AA, AAG, and AAGS with no pro-oxidant profile % inhibition of rotenone-induced SO2^− production: AA > AAG > AAGS | did not demonstrate an ability to exert antioxidant activity in mitochondria |  |  |  | 
2 | O=C1O[C@H]([C@@H](O)CO)C(O)=C1O [AA, Ascorbic acid] |  | AA, AAG, and AAGS with no pro-oxidant profile % inhibition of rotenone-induced SO2^− production: AA > AAG > AAGS |  | inhibited NO production | 30 | > 80 | 
3 | O=C1O[C@H]([C@@H](O)CO)C(O)=C1O[C@H]1O[C@H](CO)[C@@H](O)[C@H](O)[C@H]1O [AAG, 2-O-α-D-glucopyranosyl-L-ascorbic acid] |  | AA, AAG, and AAGS with no pro-oxidant profile % inhibition of rotenone-induced SO2^− production: AA > AAG > AAGS | did not demonstrate an ability to exert antioxidant activity in mitochondria | inhibited NO production |  |  | < 30
